From patent US20150141336A1, “Pancreatic Peptide Compounds and Use” (Novo Nordisk A/S, priority 2012, published 2015) come the findings set out here.

Each structure is given as a SMILES string. Numbered stars: 1 amine (or outer) side, 2 acyl side, 3 side chain; on linkers, the order of the positions; unused ones are H or OH. Side chains are listed from the residue outwards. Peptide text beside a SMILES is read from it. * marks the point of attachment. C18 diacid = O=C(O)CCCCCCCCCCCCCCCCC(=O)*; γGlu = O=C(O)[C@H](CCC(=O)[*:2])N[*:1]; AEEA = NCCOCCOCC(=O)O

The data set in a line: Assay (II) PK i.v. minipig, in vivo half-life. Details: species or system Göttingen mini-pigs. To be noted: male, Göttingen, minipig, iv, Half-life minipig, Assay (II). In short, it runs like this: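 Plasma levels after a single 6 nmol/kg intravenous dose in five male Göttingen mini-pigs were measured by TFC/LC/MS/MS against spiked-plasma calibration, sampling to 240 h. Vehicle: 50 mM K2HPO4, 0.05% tween 80, pH 8.0. Individual profiles analysed non-compartmentally for half-life.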
One may read the half-life as the time in which the quantity being followed falls by half. In the case of `CC[C@H](C)[C@H](NC(=O)[C@H](Cc1ccc(O)cc1)NC(=O)[C@H](CCCNC(=N)N)NC(=O)[C@H](CCCNC(=N)N)NC(=O)[C@H](CCCCNC(=O)COCCOCCNC(=O)COCCOCCNC(=O)CC[C@H](NC(=O)CCCCCCCCCCCCCCCCC(=O)O)C(=O)O)NC(=O)[C@H](CC(=O)O)NC(=O)[C@H](C)NC(=O)[C@H](C)NC(=O)[C@H](Cc1ccc(O)cc1)NC(=O)[C@H](CCC(N)=O)NC(=O)[C@H](C)NC(=O)[C@H](CCSC)NC(=O)[C@H](CCC(N)=O)NC(=O)[C@H](CCC(=O)O)NC(=O)[C@@H]1CCCN1C(=O)[C@@H](NC(=O)[C@H](C)NC(=O)[C@H](CC(N)=O)NC(=O)[C@H](CC(=O)O)NC(=O)CNC(=O)[C@@H]1CCCN1C(=O)[C@H](Cc1ccc(O)cc1)NC(=O)[C@@H](NC(=O)[C@@H]1CCCN1C(=O)[C@H](CCC(=O)O)NC(=O)[C@@H](N)CC(C)C)C(C)C)[C@@H](C)O)C(=O)N[C@@H](CC(N)=O)C(=O)N[C@@H](CCSC)C(=O)N[C@@H](CC(C)C)C(=O)N[C@H](C(=O)N[C@@H](CCCNC(=N)N)C(=O)N1CCC[C@H]1C(=O)N[C@@H](CCCNC(=N)N)C(=O)N[C@@H](Cc1ccc(O)cc1)C(N)=O)[C@@H](C)O` [Compound AR] (H-LEPVYPGDNATPEQMAQYAADK([AEEA-AEEA-γGlu-C18 diacid])RRYINMLTRPRY-NH2; N-terminus and C-terminus assumed), the half-life is 31 h.
To `CC[C@H](C)[C@H](NC(=O)[C@H](Cc1ccc(O)cc1)NC(=O)[C@H](CCCNC(=N)N)NC(=O)[C@H](CCCNC(=N)N)NC(=O)[C@H](CC(C)C)NC(=O)[C@H](CC(=O)O)NC(=O)[C@H](C)NC(=O)[C@H](C)NC(=O)[C@H](Cc1ccc(O)cc1)NC(=O)[C@H](CCC(N)=O)NC(=O)[C@H](C)NC(=O)[C@H](CCSC)NC(=O)[C@H](CCC(N)=O)NC(=O)[C@H](CCC(=O)O)NC(=O)[C@@H]1CCCN1C(=O)[C@@H](NC(=O)[C@H](C)NC(=O)[C@H](CC(N)=O)NC(=O)[C@H](CC(=O)O)NC(=O)CNC(=O)[C@@H]1CCCN1C(=O)[C@H](Cc1ccc(O)cc1)NC(=O)[C@@H](NC(=O)[C@@H]1CCCN1C(=O)[C@H](CCC(=O)O)NC(=O)[C@H](CC(C)C)NC(=O)[C@@H]1CCCN1)C(C)C)[C@@H](C)O)C(=O)N[C@@H](CC(N)=O)C(=O)N[C@@H](CCSC)C(=O)N[C@@H](CC(C)C)C(=O)N[C@@H](CCCCNC(=O)COCCOCCNC(=O)COCCOCCNC(=O)CC[C@H](NC(=O)CCCCCCCCCCCCCCCCC(=O)O)C(=O)O)C(=O)N[C@@H](CCCNC(=N)N)C(=O)N1CCC[C@H]1C(=O)N[C@@H](CCCNC(=N)N)C(=O)N[C@@H](Cc1ccc(O)cc1)C(N)=O` [Compound B] (H-PLEPVYPGDNATPEQMAQYAADLRRYINMLK([AEEA-AEEA-γGlu-C18 diacid])RPRY-NH2; N-terminus and C-terminus assumed) belongs 93 h; to `CC[C@H](C)[C@H](NC(=O)[C@H](Cc1ccc(O)cc1)NC(=O)[C@H](CCCNC(=N)N)NC(=O)[C@H](CCCNC(=N)N)NC(=O)[C@H](CC(C)C)NC(=O)[C@H](CC(=O)O)NC(=O)[C@H](CCCCNC(=O)COCCOCCNC(=O)COCCOCCNC(=O)CC[C@H](NC(=O)CCCCCCCCCCCCCCCCC(=O)O)C(=O)O)NC(=O)[C@H](C)NC(=O)[C@H](Cc1ccc(O)cc1)NC(=O)[C@H](CCC(N)=O)NC(=O)[C@H](C)NC(=O)[C@H](CCSC)NC(=O)[C@H](CCC(N)=O)NC(=O)[C@H](CCC(=O)O)NC(=O)[C@@H]1CCCN1C(=O)[C@@H](NC(=O)[C@H](C)NC(=O)[C@H](CC(N)=O)NC(=O)[C@H](CC(=O)O)NC(=O)CNC(=O)[C@@H]1CCCN1C(=O)[C@H](Cc1ccc(O)cc1)NC(=O)[C@@H](NC(=O)[C@@H]1CCCN1C(=O)[C@H](CCC(=O)O)NC(=O)[C@H](CC(C)C)NC(=O)[C@@H]1CCCN1)C(C)C)[C@@H](C)O)C(=O)N[C@@H](CC(N)=O)C(=O)N[C@@H](CCSC)C(=O)N[C@@H](CC(C)C)C(=O)N[C@H](C(=O)N[C@@H](CCCNC(=N)N)C(=O)N1CCC[C@H]1C(=O)N[C@@H](CCCNC(=N)N)C(=O)N[C@@H](Cc1ccc(O)cc1)C(N)=O)[C@@H](C)O` [Compound L] (H-PLEPVYPGDNATPEQMAQYAK([AEEA-AEEA-γGlu-C18 diacid])DLRRYINMLTRPRY-NH2; N-terminus and C-terminus assumed), 83 h.
Next, `CC[C@H](C)[C@H](NC(=O)[C@H](CCCCNC(=O)COCCOCCNC(=O)COCCOCCNC(=O)CC[C@H](NC(=O)CCCCCCCCCCCCCCCCC(=O)O)C(=O)O)NC(=O)[C@H](CCCNC(=N)N)NC(=O)[C@H](CCCNC(=N)N)NC(=O)[C@H](CC(C)C)NC(=O)[C@H](CC(=O)O)NC(=O)[C@H](C)NC(=O)[C@H](C)NC(=O)[C@H](Cc1ccc(O)cc1)NC(=O)[C@H](CCC(N)=O)NC(=O)[C@H](C)NC(=O)[C@H](CCSC)NC(=O)[C@H](CCC(N)=O)NC(=O)[C@H](CCC(=O)O)NC(=O)[C@@H]1CCCN1C(=O)[C@@H](NC(=O)[C@H](C)NC(=O)[C@H](CC(N)=O)NC(=O)[C@H](CC(=O)O)NC(=O)CNC(=O)[C@@H]1CCCN1C(=O)[C@H](Cc1ccc(O)cc1)NC(=O)[C@@H](NC(=O)[C@@H]1CCCN1C(=O)[C@H](CCC(=O)O)NC(=O)[C@@H](N)CC(C)C)C(C)C)[C@@H](C)O)C(=O)N[C@@H](CC(N)=O)C(=O)N[C@@H](CCSC)C(=O)N[C@@H](CC(C)C)C(=O)N[C@H](C(=O)N[C@@H](CCCNC(=N)N)C(=O)N1CCC[C@H]1C(=O)N[C@@H](CCCNC(=N)N)C(=O)N[C@@H](Cc1ccc(O)cc1)C(N)=O)[C@@H](C)O` [Compound AO] (H-LEPVYPGDNATPEQMAQYAADLRRK([AEEA-AEEA-γGlu-C18 diacid])INMLTRPRY-NH2; N-terminus and C-terminus assumed): 44 h; `CC[C@H](C)[C@H](NC(=O)[C@H](Cc1ccc(O)cc1)NC(=O)[C@H](CCCNC(=N)N)NC(=O)[C@H](CCCNC(=N)N)NC(=O)[C@H](CC(C)C)NC(=O)[C@H](CCCCNC(=O)COCCOCCNC(=O)COCCOCCNC(=O)CC[C@H](NC(=O)CCCCCCCCCCCCCCCCC(=O)O)C(=O)O)NC(=O)[C@H](C)NC(=O)[C@H](C)NC(=O)[C@H](Cc1ccc(O)cc1)NC(=O)[C@H](CCC(N)=O)NC(=O)[C@H](C)NC(=O)[C@H](CCSC)NC(=O)[C@H](CCC(N)=O)NC(=O)[C@H](CCC(=O)O)NC(=O)[C@@H]1CCCN1C(=O)[C@@H](NC(=O)[C@H](C)NC(=O)[C@H](CC(N)=O)NC(=O)[C@H](CC(=O)O)NC(=O)CNC(=O)[C@@H]1CCCN1C(=O)[C@H](Cc1ccc(O)cc1)NC(=O)[C@@H](NC(=O)[C@@H]1CCCN1C(=O)[C@H](CCC(=O)O)NC(=O)[C@H](CC(C)C)NC(=O)[C@@H]1CCCN1)C(C)C)[C@@H](C)O)C(=O)N[C@@H](CC(N)=O)C(=O)N[C@@H](CCSC)C(=O)N[C@@H](CC(C)C)C(=O)N[C@H](C(=O)N[C@@H](CCCNC(=N)N)C(=O)N1CCC[C@H]1C(=O)N[C@@H](CCCNC(=N)N)C(=O)N[C@@H](Cc1ccc(O)cc1)C(N)=O)[C@@H](C)O` [Compound K] (H-PLEPVYPGDNATPEQMAQYAAK([AEEA-AEEA-γGlu-C18 diacid])LRRYINMLTRPRY-NH2; N-terminus and C-terminus assumed): 30 h; `CC[C@H](C)[C@H](NC(=O)[C@H](Cc1ccc(O)cc1)NC(=O)[C@H](CCCNC(=N)N)NC(=O)[C@H](CCCCNC(=O)COCCOCCNC(=O)COCCOCCNC(=O)CC[C@H](NC(=O)CCCCCCCCCCCCCCCCC(=O)O)C(=O)O)NC(=O)[C@H](CC(C)C)NC(=O)[C@H](CC(=O)O)NC(=O)[C@H](C)NC(=O)[C@H](C)NC(=O)[C@H](Cc1ccc(O)cc1)NC(=O)[C@H](CCC(N)=O)NC(=O)[C@H](C)NC(=O)[C@H](CCSC)NC(=O)[C@H](CCC(N)=O)NC(=O)[C@H](CCC(=O)O)NC(=O)[C@@H]1CCCN1C(=O)[C@@H](NC(=O)[C@H](C)NC(=O)[C@H](CC(N)=O)NC(=O)[C@H](CC(=O)O)NC(=O)CNC(=O)[C@@H]1CCCN1C(=O)[C@H](Cc1ccc(O)cc1)NC(=O)[C@@H](NC(=O)[C@@H]1CCCN1C(=O)[C@H](CCC(=O)O)NC(=O)[C@H](CC(C)C)NC(=O)[C@@H]1CCCN1)C(C)C)[C@@H](C)O)C(=O)N[C@@H](CC(N)=O)C(=O)N[C@@H](CCSC)C(=O)N[C@@H](CC(C)C)C(=O)N[C@H](C(=O)N[C@@H](CCCNC(=N)N)C(=O)N1CCC[C@H]1C(=O)N[C@@H](CCCNC(=N)N)C(=O)N[C@@H](Cc1ccc(O)cc1)C(N)=O)[C@@H](C)O` [Compound I] (H-PLEPVYPGDNATPEQMAQYAADLK([AEEA-AEEA-γGlu-C18 diacid])RYINMLTRPRY-NH2; N-terminus and C-terminus assumed): 88 h.
To `CC[C@H](C)[C@H](NC(=O)[C@H](Cc1ccc(O)cc1)NC(=O)[C@H](CCCNC(=N)N)NC(=O)[C@H](CCCNC(=N)N)NC(=O)[C@H](CC(C)C)NC(=O)[C@H](CC(=O)O)NC(=O)[C@H](C)NC(=O)[C@H](C)NC(=O)[C@H](Cc1ccc(O)cc1)NC(=O)[C@H](CCC(N)=O)NC(=O)[C@H](C)NC(=O)[C@H](CCSC)NC(=O)[C@H](CCC(N)=O)NC(=O)[C@H](CCC(=O)O)NC(=O)[C@@H]1CCCN1C(=O)[C@@H](NC(=O)[C@H](C)NC(=O)[C@H](CC(N)=O)NC(=O)[C@H](CCCCNC(=O)COCCOCCNC(=O)COCCOCCNC(=O)CC[C@H](NC(=O)CCCCCCCCCCCCCCCCC(=O)O)C(=O)O)NC(=O)CNC(=O)[C@@H]1CCCN1C(=O)[C@H](Cc1ccc(O)cc1)NC(=O)[C@@H](NC(=O)[C@@H]1CCCN1C(=O)[C@H](CCC(=O)O)NC(=O)[C@H](CC(C)C)NC(=O)[C@@H]1CCCN1)C(C)C)[C@@H](C)O)C(=O)N[C@@H](CC(N)=O)C(=O)N[C@@H](CCSC)C(=O)N[C@@H](CC(C)C)C(=O)N[C@H](C(=O)N[C@@H](CCCNC(=N)N)C(=O)N1CCC[C@H]1C(=O)N[C@@H](CCCNC(=N)N)C(=O)N[C@@H](Cc1ccc(O)cc1)C(N)=O)[C@@H](C)O` [Compound X] belongs 47 h.
